These results are taken from ChEMBL document CHEMBL4270586, “Novel hydrazido benzenesulfonamides-isatin conjugates: Synthesis, carbonic anhydrase inhibitory activity and molecular modeling studies” (Eur J Med Chem, 2018).

The assay deals with Carbonic anhydrase 9 (Homo sapiens, UniProt Q16790). Briefly: Inhibition of recombinant human carbonic anhydrase 9 incubated for 15 mins prior to testing by stopped flow CO2 hydration assay.
Consider `NS(=O)(=O)c1ccc(C(=O)NN=C2C(=O)Nc3ccccc32)cc1`, for which the Ki (as a rule, a dissociation constant, usually derived from enzyme kinetics or from competition with a known ligand) is 174 nM.

Regarding `NS(=O)(=O)c1ccc(C(=O)NN=C2C(=O)Nc3ccc(Br)cc32)cc1`, the inhibition constant (Ki) turned out to be 101 nM.

In the case of `NS(=O)(=O)c1ccc(C(=O)NN=C2C(=O)Nc3ccc([N+](=O)[O-])cc32)cc1`, the Ki is 23.8 nM.

For `Cc1ccc2c(c1)C(=NNC(=O)c1ccc(S(N)(=O)=O)cc1)C(=O)N2`, the Ki was 197 nM.

With `C=CCN1C(=O)C(=NNC(=O)c2ccc(S(N)(=O)=O)cc2)c2ccccc21`, the inhibitory constant (Ki) came to 77.9 nM.

As for `CCN1C(=O)C(=NNC(=O)c2ccc(S(N)(=O)=O)cc2)c2ccccc21`, the inhibition constant Ki came to 8.9 nM.

As for `NS(=O)(=O)c1ccc(C(=O)NN=C2C(=O)N(Cc3ccccc3)c3ccccc32)cc1`, the inhibitory constant (Ki) was 25.2 nM.

Regarding `NS(=O)(=O)c1ccc(C(=O)NN=C2C(=O)N(Cc3ccc(F)cc3)c3ccccc32)cc1`, the inhibition constant (Ki) was determined as 148 nM.

As for `Cc1cc(C)c2c(c1)C(=NNC(=O)c1ccc(S(N)(=O)=O)cc1)C(=O)N2`, the inhibitory constant (Ki) is 716 nM.

`NS(=O)(=O)c1ccc(C(=O)NN=C2C(=O)Nc3ccc(Cl)cc32)cc1`: the Ki came out at 31.5 nM.

On to `COc1ccc2c(c1)C(=NNC(=O)c1ccc(S(N)(=O)=O)cc1)C(=O)N2`, for which the inhibition constant Ki is 264 nM.

For `CC(C)N1C(=O)C(=NNC(=O)c2ccc(S(N)(=O)=O)cc2)c2ccccc21`, the Ki turned out to be 177 nM.

With `Cc1ccc(CN2C(=O)C(=NNC(=O)c3ccc(S(N)(=O)=O)cc3)c3ccccc32)cc1`, the Ki was determined as 81.2 nM.

`NS(=O)(=O)c1ccc(C(=O)NN=C2C(=O)Nc3ccc(F)cc32)cc1`: the inhibition constant Ki was determined as 32.3 nM.

As to `CN1C(=O)C(=NNC(=O)c2ccc(S(N)(=O)=O)cc2)c2ccccc21`, the Ki stood at 30.6 nM.

For the compound `CCCN1C(=O)C(=NNC(=O)c2ccc(S(N)(=O)=O)cc2)c2ccccc21`, the Ki came to 30.1 nM.

For the compound `CCCCN1C(=O)C(=NNC(=O)c2ccc(S(N)(=O)=O)cc2)c2ccccc21`, the inhibition constant Ki worked out at 27.4 nM.

On to `CCOC(=O)CN1C(=O)C(=NNC(=O)c2ccc(S(N)(=O)=O)cc2)c2ccccc21`, for which the inhibition constant Ki amounted to 17.7 nM.
